Measured values: PMC6150735, “Molecular Docking-Based Design and Development of a Highly Selective Probe Substrate for UDP-glucuronosyltransferase 1A10” (Molecular Pharmaceutics, 2018)
Entries after “also recorded” stand apart in the source; their conditions may differ.

Experiments:
[1] = system: UGT1A1; assay: Recombinant human UGT screen: glucuronidation by UGT1A1; type: biochemical; settings: 10 μM aglycone, recombinant UGTs
Method: Recombinant human UGTs 1A1, 1A3, 1A6, 1A7, 1A8, 1A9, 1A10, 2A1, 2A2, 2A3, 2B4, 2B10, 2B7, and 2B17 were produced, as His-tagged proteins, in baculovirus-infected insect cells as previously described.[37]−[39] The relative expression level of each of these recombinant UGTs was evaluated by immunodetection, using monoclonal antibody against the His-tag, as described elsewhere.[40] A numeric value of 1.0 was given to the expression level of UGT1A8 and the relative expression level of each of the other UGTs was related to this value. Normalized activities were obtained by dividing the glucuronidation rate values by the relative expression level of the tested UGT. […] The expression levels of the UGTs in the commercial samples could not be determined, so their protein concentration was used to calculate the reaction rate.
The incubation mixtures for glucuronidation assays contained 100 mM Tris-HCl buffer pH 7.4, 2.5 mM MgCl2, 0.5 mM UDPGA, recombinant UGT, or microsomes as the enzyme source and 0–15 μM of the test aglycone substrate. […] In subsequent experiments, the control samples lacked the enzyme source since it gave the highest fluorescence background. […] Fluorescence spectra (excitation 200–420 nm; emission 400–600 nm) or fluorescence decrease at 390 nm excitation and 460 nm emission, were measured in these preliminary experiments, using a Shimadzu RF-5000 spectrophotofluorometer. […]

[2] = Absorbance spectra of coumarin derivatives; type: physicochemical; settings: 10 μM, 100 mM Tris–HCl pH 7.4, 10% dimethyl sulfoxide
Method: (§1) The absorbance spectra of 10 μM coumarin derivatives at 100 mM Tris–HCl pH 7.4 containing 10% dimethyl sulfoxide were measured using a Hitachi U-2000 Spectrophotometer (Tokyo, Japan). Excitation and emission fluorescence spectra of 0.1 μM coumarin derivatives in 100 mM Tris-HCl pH 7.4 were measured using a Shimadzu RF-5000 spectrophotofluorometer (Tokyo, Japan). The excitation spectra was from 200 to 420 at 460 nm emission and the emission spectra was from 400 to 600 at 390 nm excitation (data in Supplementary Table S1 and Figures S1 and S2). The effect of pH on fluorescence intensity was determined at 405 nm excitation and 460 nm emission, in the presence of 1.5% trichloroacetic acid, 100 mM phosphate buffers at pH 5, 6, 7, 8, and 9, or 1.6 M glycine–NaOH pH 10.4.

[3] = Excitation and emission fluorescence spectra of coumarin derivatives; type: physicochemical; set-up: dose or concentration left out as unconfirmed
Method: as §1, with “Excitation and emission fluorescence spectra of 0.1 μM coumarin derivatives in 100 mM Tris-HCl pH 7.4 were measured using a Shimadzu RF-5000 spectrophotofluorometer (Tokyo, Japan).” left out

[4] = target: T1, UGT1A10 mutant 1A10-H210M (Homo sapiens, UniProt Q9HAW8, H210M); assay: Glucuronidation kinetics by UGT1A10 mutant 1A10-H210M (fluorescence decrease, 96-well plate); type: biochemical; settings: mutant versus wild-type UGT1A10
T1 construct: His-tag; made in house; host or cells: baculovirus-infected SF9 insect cells
T1 sequence (Q9HAW8 26-530 H210M): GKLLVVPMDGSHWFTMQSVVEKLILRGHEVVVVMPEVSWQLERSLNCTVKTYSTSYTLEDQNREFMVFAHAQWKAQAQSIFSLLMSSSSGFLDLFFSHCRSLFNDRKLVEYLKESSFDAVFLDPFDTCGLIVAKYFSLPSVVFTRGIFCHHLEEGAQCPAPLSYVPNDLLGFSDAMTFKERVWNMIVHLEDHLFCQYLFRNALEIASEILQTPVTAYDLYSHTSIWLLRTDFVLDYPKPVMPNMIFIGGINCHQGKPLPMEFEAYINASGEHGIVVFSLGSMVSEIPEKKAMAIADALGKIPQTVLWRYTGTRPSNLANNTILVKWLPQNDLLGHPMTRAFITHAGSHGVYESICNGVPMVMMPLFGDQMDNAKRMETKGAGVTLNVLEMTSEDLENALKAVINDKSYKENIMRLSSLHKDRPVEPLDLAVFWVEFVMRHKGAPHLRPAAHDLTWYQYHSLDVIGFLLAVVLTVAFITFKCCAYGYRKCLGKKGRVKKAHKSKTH
Method: The UGT1A10 mutant 1A10-H210 M was prepared according to the QuikChange methodology, using the cloned UGT1A10 in pFastBac[42] as a template and the following two oligonucleotides:
The entire coding sequence of UGT1A10 in the mutant clone was sequenced, and subsequently, recombinant baculovirus was prepared and used to express the mutant enzyme in baculovirus-infected SF9 insect cells.
The incubation mixtures for glucuronidation assays contained 100 mM Tris-HCl buffer pH 7.4, 2.5 mM MgCl2, 0.5 mM UDPGA, recombinant UGT, or microsomes as the enzyme source and 0–15 μM of the test aglycone substrate. When the incubation mixtures contained microsomes, alamethicin was used at a final concentration of 12.5 μg/mL, but it was not included in the recombinant enzyme assays.[43] In the first experiments three negative control samples were tested, namely (i) without the substrate 7-hydroxycoumarin derivative, (ii) without the cofactor UDPGA, or (iii) without the enzyme source. In subsequent experiments, the control samples lacked the enzyme source since it gave the highest fluorescence background. […] Fluorescence spectra (excitation 200–420 nm; emission 400–600 nm) or fluorescence decrease at 390 nm excitation and 460 nm emission, were measured in these preliminary experiments, using a Shimadzu RF-5000 spectrophotofluorometer.
Most of the glucuronidation assays were carried out in 96 multiwell plate format, and incubations were carried out in 100 μL and at 37 °C, in the presence of Tris–HCl buffer pH 7.4, UDPGA, and the tested 7-hydroxycoumarin derivative, at the indicated concentrations. Fluorescence decline in the multiwell plate experiments was monitored every other minute, for 40 min, using an excitation filter at 405 nm and detection at 460 nm, in a Victor2 1420 Multilabel counter (PerkinElmer, Life Sciences, Turku, Finland). The fluorescence values were transformed into molarity using the aglycone substrates for making the respective standard curves. […] Enzyme catalyzed glucuronidation rate was calculated by subtracting the blank value from the full reaction value. […]

[5] = system: human UGTs; assay: Recombinant human UGT screen: glucuronidation rates across human UGTs; type: biochemical; settings: 10 μM aglycone
Method: Recombinant human UGTs 1A1, 1A3, 1A6, 1A7, 1A8, 1A9, 1A10, 2A1, 2A2, 2A3, 2B4, 2B10, 2B7, and 2B17 were produced, as His-tagged proteins, in baculovirus-infected insect cells as previously described.[37]−[39] The relative expression level of each of these recombinant UGTs was evaluated by immunodetection, using monoclonal antibody against the His-tag, as described elsewhere.[40] A numeric value of 1.0 was given to the expression level of UGT1A8 and the relative expression level of each of the other UGTs was related to this value. Normalized activities were obtained by dividing the glucuronidation rate values by the relative expression level of the tested UGT. In addition, UGTs 1A4, 2B10, and 2B15 were purchased from Corning Life Sciences (New York) and are marked, in Figure 5, with a “C” to indicate that they are commercial enzymes. The expression levels of the UGTs in the commercial samples could not be determined, so their protein concentration was used to calculate the reaction rate.
(§2) The incubation mixtures for glucuronidation assays contained 100 mM Tris-HCl buffer pH 7.4, 2.5 mM MgCl2, 0.5 mM UDPGA, recombinant UGT, or microsomes as the enzyme source and 0–15 μM of the test aglycone substrate. When the incubation mixtures contained microsomes, alamethicin was used at a final concentration of 12.5 μg/mL, but it was not included in the recombinant enzyme assays.[43] In the first experiments three negative control samples were tested, namely (i) without the substrate 7-hydroxycoumarin derivative, (ii) without the cofactor UDPGA, or (iii) without the enzyme source. In subsequent experiments, the control samples lacked the enzyme source since it gave the highest fluorescence background. Preliminary experiments were done under different conditions than most of the later assays, namely in 2.5 mL of 100 mM phosphate buffer pH 7.4, containing 500 μg pig liver microsomes, 1.0 μM compound 6 and 0.5 mM UDPGA, at room temperature. Fluorescence spectra (excitation 200–420 nm; emission 400–600 nm) or fluorescence decrease at 390 nm excitation and 460 nm emission, were measured in these preliminary experiments, using a Shimadzu RF-5000 spectrophotofluorometer.
(§3) Most of the glucuronidation assays were carried out in 96 multiwell plate format, and incubations were carried out in 100 μL and at 37 °C, in the presence of Tris–HCl buffer pH 7.4, UDPGA, and the tested 7-hydroxycoumarin derivative, at the indicated concentrations. Fluorescence decline in the multiwell plate experiments was monitored every other minute, for 40 min, using an excitation filter at 405 nm and detection at 460 nm, in a Victor2 1420 Multilabel counter (PerkinElmer, Life Sciences, Turku, Finland). The fluorescence values were transformed into molarity using the aglycone substrates for making the respective standard curves. Slopes of the substrate concentration decrease per minute were calculated using linear regression analysis, in which the linear part of the kinetic assay indicated the glucuronidation rate. Enzyme catalyzed glucuronidation rate was calculated by subtracting the blank value from the full reaction value. The intra-assay variability of the kinetic assays was 6% when compound 6 was used as the aglycone substrate. Kinetic analyses were also performed in the same 96 multiwell plates format, with excitation filter at 405 nm and detection at 460 nm, using 6–8 different substrate concentrations per substrate and two different protein concentrations for both the wild-type and mutant UGT1A10. The higher concentrations, 13.5 mg/L for UGT1A10 and 12.0 mg/L for the UGT1A10 mutant, were used when the substrates were HFC, compounds 4 and 6, whereas the lower protein concentrations, 6.75 and 6.0 mg/L for UGT1A10 and the mutant, respectively, were used when the substrates were compounds 1, 2, 3, and 5.

[6] = system: human liver microsomes (HLM); assay: Glucuronidation by human liver microsomes (HLM); type: in vitro ADME; settings: 10 μM aglycone
Method: (§4) A commercial HLM pool (cat no:452210, BD Gentest, Bedford, MA) and human intestine microsomes (HIM) pool (lot. no 1110189, XenoTech, Kansas City, KS) were purchased. Pig liver samples were prepared from untreated female pigs that were used for practicing surgical procedures at the University of Kuopio (currently: University of Eastern Finland, Kuopio campus). Other animal liver microsomes were prepared as described previously.[41] The Ethics Committee for Animal Experiments, University of Kuopio, approved these experiments.
as §2, §3

[7] = system: human intestinal microsomes (HIM); assay: Glucuronidation by human intestinal microsomes (HIM); type: in vitro ADME; settings: 10 μM aglycone
Method: as §4, §2, §3

Row | Structure (SMILES) | Glucuronidation rate by UGT1A1 relative to the corresponding UGT1A10 rate [1] | Amax [2] | ε abs [2] | Fluorescence EMmax [3] | Change of Km by the H210M mutation (in words) [4] | Selectivity among human UGTs ([5]; other UGTs at very low rates) | Glucuronidation by HLM (in words) [6] | Fluorescence EXmax [3] | UGT(s) that primarily glucuronidate the substrate ([5]; control substrates) | Glucuronidation rate, HLM compared with HIM (in words) [7]
1 | O=c1oc2cc(O)ccc2cc1-c1ccc(F)cc1 [Compound 1, 7-hydroxy-3-(4-fluorophenyl)-2H-chromen-2-one] | about 40% | 344 nm | 19000 M⁻¹ cm⁻¹ | 466 nm | – | – | – | – | – | –
2 | O=c1oc2cc(O)ccc2cc1-c1ccc(O)cc1 [Compound 2, 7-hydroxy-3-(4-hydroxyphenyl)-2H-chromen-2one] | – | 352 nm | 20000 M⁻¹ cm⁻¹ | 475 nm | considerably increased | selective for UGT1A10 | not glucuronidated by HLM at all, or only at very low rates; also recorded: very low or below the detection limit | 395 nm | – | –
3 | COc1ccc(-c2cc3ccc(O)cc3oc2=O)cc1 [Compound 3, 7-hydroxy-3-(4-methoxyphenyl)coumarin] | ~20% | 350 nm | 17300 M⁻¹ cm⁻¹ | 472 nm | – | – | – | 368 nm | – | –
4 | O=c1cc(C(F)(F)F)c2ccc(O)cc2o1 [HFC, 4-(trifluoromethyl)-7-hydroxycoumarin, reference compound] | – | – | – | – | increase | – | – | – | UGT1A6 and UGT1A10 | much higher rates by HLM than by HIM
